Our source for the T/C and inhibition values is patent US10653701B2, “Substituted quinazolines for inhibiting kinase activity” (NeuPharma, Inc., priority 2013, dated 2020).

Usually T/C stands for the ratio of treated to control. One may read the inhibition as the relative decrease from the control value, in per cent. Low readings indicate little suppression, high ones strong suppression.

In one experiment the test system is H1975 tumor xenograft. Briefly: Inhibition of tumor growth in H1975 tumor xenograft model. The following applies: QD x 14. It is filed as in vivo, BALB/c female nude mice. The method, then:
H1975 cells were implanted in BALB/c female nude mice and grown as tumor xenografts. When tumors achieved 120-200 mm^3, mice were assigned into treatment and control groups using randomized block design based upon their tumor volumes. Each group contained 6 tumor-bearing mice. Tumors were measured twice weekly in two dimensions using a caliper, and the tumor volume was calculated from two-dimensional measurements using the equation V=0.5×a×b^2 where a and b are the long and short diameters of the tumor, respectively. Relative tumor volume (RTV) was defined as TVt/TVi, the ratio of the volume on a given day (TVt) and the volume at the start of treatment (TVi). Relative tumor growth rate (T/C) was defined as RTVT/RTVC, the ratio of relative tumor volume of treatment group (RTVT) and relative tumor volume of control group (RTVC) on a given day. Inhibition of tumor growth in a H1975 tumor xenograft model by some compounds is shown below in Table 6 and Table 7.

A further experiment concerns the target FGFR1 (Homo sapiens (Human), UniProt P11362). Briefly: Z'-LYTE kinase inhibition assay, FGFR1. It is filed as biochemical. The following applies: compound at 0.041 μM. The method, then:
Inhibitory activities of compounds against BTK, EGFR and EGFR mutants (EGFR L858R, EGFR T790M, EGFR L858R/T790M), FGFR1, FGFR2, JAK2, JAK3 and KDR were measured by Invitrogen using Z′-LYTE® Method as briefly described in the following.
Test Compounds are screened in 1% DMSO (final) in the well. For 10 point titrations, 3-fold serial dilutions are conducted from the starting concentration. All ATP Solutions are diluted to a 4× working concentration in Kinase Buffer (50 mM HEPES pH 7.5, 0.01% BRIJ-35, 10 mM MgCl2, 1 mM EGTA). Peptide/Kinase Mixtures are diluted to a 2× working concentration in the appropriate Kinase Buffers as described below.
(v) Peptide/Kinase Mixtures for measurement of FGFR1:
The 2×FGFR1/Tyr 04 mixture is prepared in 50 mM HEPES pH 7.5, 0.01% BRIJ-35, 10 mM MgCl2, 4 mM MnCl2, 1 mM EGTA, 2 mM DTT. The final 10 μL Kinase Reaction consists of 0.41-3.5 ng FGFR1 and 2 μM Tyr 04 in 50 mM HEPES pH 7.5, 0.01% BRIJ-35, 10 mM MgCl2, 2 mM MnC12, 1 mM EGTA, 1 mM DTT. After the 1 hour Kinase Reaction incubation, 5 μL of a 1:64 dilution of Development Reagent B is added.
Reaction starts by 30-second shaking of mixture consisting of 2.5 μL 4× test compound, 5 μL 2× kinase reaction mixture and 2.5 μL 4×ATP Solution on Bar-coded Corning, low volume NBS, black 384-well plate (Corning Cat. #3676). […] Finally fluorescence is read by plate reader. […]

The mark [1] stands for this setting: Table 6, 30 mg/kg, Intraperitoneal injection.

Chain of FGFR1 (P11362 22-822): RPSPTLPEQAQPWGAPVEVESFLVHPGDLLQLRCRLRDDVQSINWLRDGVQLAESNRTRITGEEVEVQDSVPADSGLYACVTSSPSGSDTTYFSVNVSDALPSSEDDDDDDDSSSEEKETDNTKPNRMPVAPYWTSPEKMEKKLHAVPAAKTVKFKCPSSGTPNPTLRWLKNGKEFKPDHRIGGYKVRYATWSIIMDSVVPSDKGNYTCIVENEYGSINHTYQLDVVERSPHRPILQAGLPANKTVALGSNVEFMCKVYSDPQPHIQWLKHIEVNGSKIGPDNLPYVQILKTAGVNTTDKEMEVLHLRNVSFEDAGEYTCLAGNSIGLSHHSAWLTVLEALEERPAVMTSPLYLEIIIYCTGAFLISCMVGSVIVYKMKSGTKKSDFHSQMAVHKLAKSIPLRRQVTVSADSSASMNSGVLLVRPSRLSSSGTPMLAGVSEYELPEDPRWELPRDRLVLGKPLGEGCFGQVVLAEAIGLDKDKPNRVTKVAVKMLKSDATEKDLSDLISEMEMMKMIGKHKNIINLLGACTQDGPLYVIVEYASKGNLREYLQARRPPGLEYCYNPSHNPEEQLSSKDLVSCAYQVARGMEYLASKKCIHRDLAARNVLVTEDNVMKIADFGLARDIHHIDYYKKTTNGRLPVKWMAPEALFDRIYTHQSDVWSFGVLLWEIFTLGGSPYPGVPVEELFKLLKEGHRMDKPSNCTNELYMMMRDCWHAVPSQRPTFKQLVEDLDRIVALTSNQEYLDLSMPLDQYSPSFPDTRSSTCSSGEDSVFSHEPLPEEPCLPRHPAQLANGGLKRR

The molecule `C=CC(=O)Nc1cccc(-c2cccc3cnc(Nc4ccc(N5CCN(C)CC5)cc4)nc23)c1` [Example C021, N-(3-(2-((4-(4-methylpiperazin-1-yl)phenyl)amino)quinazolin-8-yl)phenyl)acrylamide] gave a T/C with H1975 tumor xenograft (Table 6, 60 mg/kg, Oral) of 30.5%. In turn, `C=CC(=O)Nc1cccc(-c2cccc3cnc(Nc4ccc(N5CCN(C(C)=O)CC5)cc4)nc23)c1` [Example C032, N-(3-(2-((4-(4-acetylpiperazin-1-yl)phenyl)amino)quinazolin-8-yl)phenyl)acrylamide] displayed an inhibition at 0.041 µM against FGFR1 above 50%. For `C=CC(=O)Nc1cccc(-c2cccc3cnc(Nc4ccc(N5CCN(C)CC5)nc4)nc23)c1` [Example C041, N-(3-(2-((6-(4-methylpiperazin-1-yl)pyridin-3-yl)amino)quinazolin-8-yl)phenyl)acrylamide], in the experiment on H1975 tumor xenograft (setting [1]), the T/C is 48.7%.

Take `C=CC(=O)Nc1cccc(-c2cccc3cnc(Nc4ccc(N5CCN(CCO)CC5)cc4)nc23)c1` [Example C059, N-(3-(2-((4-(4-(2-hydroxyethyl)piperazin-1-yl)phenyl)amino)quinazolin-8-yl)phenyl)acrylamide]: the T/C with H1975 tumor xenograft (Table 6, 60 mg/kg, Oral) is 35.3%. As for `C=CC(=O)Nc1cccc(-c2cccc3cnc(Nc4ccc(NC5CN(CCF)C5)cc4)nc23)c1` [Example C103, N-(3-(2-((4-((1-(2-fluoroethyl)azetidin-3-yl)amino)phenyl)amino)quinazolin-8-yl)phenyl)acrylamide], the T/C in the experiment on H1975 tumor xenograft (setting [1]) is listed as 35.8%. Still for that read-out and setting: in the case of `C=CC(=O)Nc1cccc(-c2cccc3cnc(Nc4ccc(OCCOC)cc4)nc23)c1` [Example C107, N-(3-(2-((4-(2-methoxyethoxy)phenyl)amino)quinazolin-8-yl)phenyl)acrylamide] it was 63.6%. Consider `C=CC(=O)Nc1cccc(-c2cccc3cnc(Nc4ccc(N5CCN(CCO)CC5)cc4F)nc23)c1` [Example C147, N-(3-(2-((2-fluoro-4-(4-(2-hydroxyethyl)piperazin-1-yl)phenyl)amino)quinazolin-8-yl)phenyl)acrylamide], for which the T/C with H1975 tumor xenograft (Table 7, 60 mg/kg, Oral) came out at 55.7%.

Molecule `C=CC(=O)Nc1cccc(-c2cccc3cnc(Nc4ccc(N5CCN(CCO)CC5)c(F)c4F)nc23)c1` [Example C151, N-(3-(2-((2,3-difluoro-4-(4-(2-hydroxyethyl)piperazin-1-yl)phenyl)amino)quinazolin-8-yl)phenyl)acrylamide] registered a T/C in the experiment with H1975 tumor xenograft (Table 7, 60 mg/kg, Oral) of 28.6%. On the same count and under the same terms, to `C=CC(=O)Nc1cccc(-c2cccc3cnc(Nc4ccc(N5CCN(C)CC5)c(F)c4F)nc23)c1` [Example C156, N-(3-(2-((2,3-difluoro-4-(4-methylpiperazin-1-yl)phenyl)amino)quinazolin-8-yl)phenyl)acrylamide] belongs 36.8%.
